Source: patent US9096582B2, “Gamma secretase modulators” (MERCK SHARP & DOHME CORP, priority 2011, dated 2015)
pIC50: −log10 of the molar value.

Legend:
γ-secretase = target: T1, γ-secretase (Homo sapiens, UniProt P49768); test: Cell based γ-secretase assay (Aβ42 in conditioned media, MSD sandwich immunoassay); conditions: HEK 293 cells stably transfected with APPsw-lon; 5 hrs treatment; means of two independent experiments
T1 construct: Human embryonic kidney (HEK) 293 cells stably transfected with APPsw-lon in pcDNA3.1 vector; endogenous in cells; host or cells: HEK293 cells stably transfected with APPsw-lon (substrate only) in pcDNA3.1
Experimental: Cell Based γ-Secretase Assay (In Vitro Assay Method)
Human embryonic kidney (HEK) 293 cells stably transfected with APPsw-lon in pcDNA3.1 vector (Invitrogen) were treated with gamma secretase modulator (GSM) compounds (see Table below) for 5 hrs. Aβ in conditioned media was measured using MesoScale Discovery (MSD) technology based sandwich immunoassays. Aβ42 was measured using a pair of labeled antibodies TAG-G2-11 (described in Ida, N. et al., Journal of Biological Chemistry, 1996, 271, p. 22908-22914) and biotin-4G8 (Covance); γ-secretase activity is expressed as the concentration of compound producing 50% inhibition of the enzyme activity. The data presented below in the Table were the means of two independent experiments.

Rat CSF Aβ42 = test: Cerebrospinal fluid (CSF) Aβ analysis (in vivo assay method); conditions: male CD rats; oral, 30 mg/kg in 20% hydroxypropyl β-cyclodextrin; CSF collected three hours after dosing
Experimental: Cerebrospinal Fluid (CSF) Aβ Analysis (In Vivo Assay Method)
Male CD rats (100 g; Charles River Laboratories) were orally administered a GSM compound (formulated in 20% hydroxypropyl β-cyclodextin; 5 ml/kg). Three hours later, the animals were euthanized with excess CO2, and CSF was immediately collected from the cisterna magna and frozen on dry ice; only clear samples were analyzed. Rat CSF Aβ42 was analyzed using AlphaLISA Amyloid Assay kits (Perkin-Elmer) according to the manufacturer's instructions. In vivo activity of the tested GSM compounds is expressed as the percentage of Aβ42 reduction in CSF after administration of the compound and is presented in the Table.

pIC50 (γ-secretase)	Structure (SMILES)	% CSF Aβ42 Reduction After 30 mg/kg Dosing (Rat CSF Aβ42)
6.88	COc1cc(-c2noc3c2CCCC3NCc2ccc(F)cc2)ccc1-n1cnc(C)c1 (racemic)	–
6.50	COc1cc(-c2noc3c2CCCC3N(C)Cc2ccc(F)cc2)ccc1-n1cnc(C)c1 (racemic)	–
6.82	COc1cc(-c2noc3c2CCCC3(O)Cc2cc(F)cc(F)c2)ccc1-n1cnc(C)c1 (racemic)	–
6.69	COc1cc(-c2noc3c2CCCC3Oc2cc(F)cc(F)c2)ccc1-n1cnc(C)c1 (racemic)	–
6.29	COc1cc(-c2noc3c2CCCC3OCc2cc(F)cc(F)c2)ccc1-n1cnc(C)c1 (racemic) [7-(3,5-Difluorobenzyloxy)-3-(3-methoxy-4-(4-methyl-1H-imidazol-1-yl)phenyl)-4,5,6,7-tetrahydrobenzo[d]isoxazole]	–
6.95	COc1cc(-c2noc3c2CCCC3c2cc(F)cc(F)c2)ccc1-n1cnc(C)c1 (racemic) [7-(3,5-Difluorophenyl)-3-(3-methoxy-4-(4-methyl-1H-imidazol-1-yl)phenyl)-4,5,6,7-tetrahydrobenzo[d]isoxazole]	0%
6.40	COc1cc(-c2noc3c2CCCC3Nc2ccc(F)cc2)ccc1-n1cnc(C)c1 (single isomer, unassigned) [drawing 26, N-(4-Fluorophenyl)-3-(3-methoxy-4-(4-methyl-1H-imidazol-1-yl)phenyl)-4,5,6,7-tetrahydrobenzo[d]isoxazol-7-amine]	37%
6.19	COc1cc(-c2noc3c2CCCC3NCc2cc(F)cc(F)c2)ccc1-n1cnc(C)c1 (single isomer, unassigned) [drawing 33]	7%
7.53	COc1cc(-c2noc3c2CCCC3NCc2cc(F)cc(F)c2)ccc1-n1cnc(C)c1 (single isomer, unassigned) [drawing 34]	20%

Continued, compound first:

Structure (SMILES)	pIC50 (γ-secretase)	% CSF Aβ42 Reduction After 30 mg/kg Dosing (Rat CSF Aβ42)
CNC1CCCc2c(-c3ccc(-n4cnc(C)c4)c(OC)c3)noc21 (racemic)	4.91	–
COc1cc(-c2noc3c2CCCC3NC2CCCCC2)ccc1-n1cnc(C)c1 (racemic)	6.51	–
COc1cc(-c2noc3c2CCCC3NCC(F)(F)F)ccc1-n1cnc(C)c1 (racemic)	6.33	–
COc1cc(-c2noc3c2CCCC3N[C@H](C)c2ccc(F)cc2)ccc1-n1cnc(C)c1 (mixture of isomers)	6.59	–
COc1cc(-c2noc3c2CCCC3(O)c2cc(F)cc(F)c2)ccc1-n1cnc(C)c1 (racemic) [7-(3,5-Difluorophenyl)-3-(3-methoxy-4-(4-methyl-1H-imidazol-1-yl)phenyl)-4,5,6,7-tetrahydrobenzo[d]isoxazol-7-ol]	6.72	19%
COc1cc(-c2noc3c2CCCC3Oc2ccc(F)cc2)ccc1-n1cnc(C)c1 (racemic) [7-(4-Fluorophenoxy)-3-(3-methoxy-4-(4-methyl-1H-imidazol-1-yl)phenyl)-4,5,6,7-tetrahydrobenzo[d]isoxazole]	6.53	–
COc1cc(-c2noc3c2CCCC3Nc2ccc(F)cc2)ccc1-n1cnc(C)c1 (single isomer, unassigned) [drawing 25, N-(4-Fluorophenyl)-3-(3-methoxy-4-(4-methyl-1H-imidazol-1-yl)phenyl)-4,5,6,7-tetrahydrobenzo[d]isoxazol-7-amine]	7.40	58%
